According to publication PMC11413854, “Reversible Control of Native GluN2B-Containing NMDA Receptors with Visible Light” (ACS Chemical Neuroscience, 2024):

Biological target: T1, GluN1/GluN2C (Rattus norvegicus, UniProt P35439+Q00961)
T1 construct: expressed in transfected cells; host or cells: Xenopus laevis oocytes (nuclear cDNA injection)
Assay: TEVC on Xenopus oocytes, GluN1/GluN2C diheteromers
Format: cell-based
Details: 1 µM trans-OptoNAM-3 (dark); listed as trans-OptoNAM-3
Description: NMDARs exist as multiple subtypes in the brain that are formed by the combination of two GluN1 and either two identical (diheteromers) or different (triheteromers) GluN2 (GluN2A-D) subunits.[1] We assessed the selectivity of trans-OptoNAM-3 (dark PSS) for the other NMDAR subtypes.
We used cDNA coding for rat GluN1–1a (named GluN1 herein) (GenBank: U08261.1), rat GluN2A (GenBank: D13211.1), mouse GluN2B (GenBank: D10651.2), rat GluA1 flop (GenBank: M36418.2), and rat Myc-GluA2(Q)-flip (GenBank: AF164344.1) cloned into pcDNA3-based expression plasmids. GluK2 (GenBank: Z11548.1) corresponds to the fully RNA-edited version.[80] The GluN2B-ΔNTD construct is from ref[45] and GluN2B–N615K is from ref[81]. Single mutants GluN2B-Q110G and GluN1-L135H were from ref[19]. The GluA2 cDNA contains a Myc tag ([…]) fused between the signal peptide and the N-terminus sequences, and the GluA2 subunit is […] for its Q/R/N site (GluA2(Q)) to allow permeation of homomeric GluA2 receptors.[2] cDNAs coding for rat GluN2C (GenBank: M91563.1) and GluN2D subunits (GenBank: L31611.1) were in prK5 plasmids.
Expression of recombinant NMDA receptors was obtained by oocyte nuclear coinjection of 37 nL of a mixture of cDNAs (at 30 ng/μL) coding for GluN1–1a and various GluN2 subunits (ratio 1:1). The protocol in ref[43] was followed for the expression of GluN1/GluN2A/GluN2B triheteromers. […]

T1 sequence (Q00961 20-1237, other chains not shown): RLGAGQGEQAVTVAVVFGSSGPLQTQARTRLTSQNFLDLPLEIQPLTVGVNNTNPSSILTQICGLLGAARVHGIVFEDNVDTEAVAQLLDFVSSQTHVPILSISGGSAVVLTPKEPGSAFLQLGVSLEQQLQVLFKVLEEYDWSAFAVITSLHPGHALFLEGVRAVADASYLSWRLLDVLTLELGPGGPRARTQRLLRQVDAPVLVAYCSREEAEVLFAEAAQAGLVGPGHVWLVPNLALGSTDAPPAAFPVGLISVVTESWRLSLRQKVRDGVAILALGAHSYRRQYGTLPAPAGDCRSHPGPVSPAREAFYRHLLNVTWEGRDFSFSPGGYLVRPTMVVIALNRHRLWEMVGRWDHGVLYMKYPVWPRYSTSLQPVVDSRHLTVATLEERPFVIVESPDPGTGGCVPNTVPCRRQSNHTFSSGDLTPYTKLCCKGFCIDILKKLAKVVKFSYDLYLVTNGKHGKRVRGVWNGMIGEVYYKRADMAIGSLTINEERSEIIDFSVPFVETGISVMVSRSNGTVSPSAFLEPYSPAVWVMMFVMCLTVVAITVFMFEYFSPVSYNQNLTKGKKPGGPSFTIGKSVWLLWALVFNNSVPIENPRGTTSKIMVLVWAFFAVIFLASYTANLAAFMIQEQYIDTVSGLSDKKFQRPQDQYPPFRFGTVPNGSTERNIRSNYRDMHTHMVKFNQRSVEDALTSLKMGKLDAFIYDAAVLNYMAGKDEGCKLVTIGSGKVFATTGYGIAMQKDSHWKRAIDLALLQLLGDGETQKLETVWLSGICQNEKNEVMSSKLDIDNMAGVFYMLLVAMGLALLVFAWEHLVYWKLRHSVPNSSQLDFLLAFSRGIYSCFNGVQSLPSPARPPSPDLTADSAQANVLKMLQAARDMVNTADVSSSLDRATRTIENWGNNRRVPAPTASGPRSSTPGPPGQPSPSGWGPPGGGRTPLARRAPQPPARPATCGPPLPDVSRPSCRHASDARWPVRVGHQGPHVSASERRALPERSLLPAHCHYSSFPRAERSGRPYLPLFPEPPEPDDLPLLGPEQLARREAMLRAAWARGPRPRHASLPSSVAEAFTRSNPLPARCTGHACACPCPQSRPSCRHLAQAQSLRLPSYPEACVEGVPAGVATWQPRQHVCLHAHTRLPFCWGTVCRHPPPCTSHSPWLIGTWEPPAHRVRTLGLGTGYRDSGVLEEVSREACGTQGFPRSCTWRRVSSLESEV

inhibition of GluN1/GluN2C: 3.2% ± 0.5%
SMILES: c1ccc(/N=N/c2ccc(CCNc3ccncc3)cc2)cc1 [OptoNAM-3, (E)-N-(4-(Phenyldiazenyl)phenethyl)pyridin-4-amine]
